Reference: patent US20040029910A1, “Protoberberine derivatives which inhibit activity of the mitogen-activated protein kinase” (priority 2000, published 2004)

Experiments:
[1] = tested on: knock-out mutant of spc1 (KS1366); test: Growth (cell number) of spc1 knock-out mutant; assay type: cell-based, Schizosaccharomyces pombe; conditions: for inhibition of the knock-out mutant of spc1 (in words): table 6
Procedure: To investigate the effect of protoberberine derivatives on the growth of cells, the cells of each strain were cultured in rich medium YE^AU to exponential phase(5×10^7 cells/mL). […] Then cell number was measured every 3 hours.

[2] = tested on: knock-out mutant of byr2 in Ras-Byr2 pathway (SPSU); test: Growth (cell number) of byr2 knock-out mutant; assay type: cell-based, Schizosaccharomyces pombe
Procedure: (§1) To investigate the effect of protoberberine derivatives on the growth of cells, the cells of each strain were cultured in rich medium YE^AU to exponential phase(5×10^7 cells/mL). These cells were transferred to YE^AU medium and cultured for 12 hours. Then cell number was measured every 3 hours.

[3] = tested on: knock-out mutant of win1 (ED1388); test: Growth (cell number) of win1 knock-out mutant; assay type: cell-based, Schizosaccharomyces pombe; conditions: Table 7, win1 knock-out
Procedure: as §1
(§2) The knock-out mutant of win1 and wis4 was cultured and treated with 13-(4-t-butylbenzyl)berberine chloride, 13-(4-(t-butyldimethylsilyloxy)benzyl)berberine chloride or 2,3,9,10-tetrapropoxyprotoberberine iodide of the compounds 13-benzylberberine iodide, 13-(4-chloro benzyl)berberine iodide, 13-(3-bromobenzyl)berberine iodide, 13-(2,3-dichlorobenzyl)berberine chloride, 13-(2-chloro-6-fluorobenzyl)berberine chloride, 13-(4-fluoro-2-trifluoromethylbenzyl)berberine chloride, 13-(2,3,4,5,6-pentafluorobenzyl)berberine chloride, 13-(2,3,5,6-tetra fluoro-4-trifluoromethylbenzyl)berberine chloride, 13-(4-methylbenzyl)berberine chloride, 13-(2,4-dimethylbenzyl) berberine chloride, 13-(4-methyl-3-nitrobenzyl)berberine chloride, 13-(3-trifluoromethylbenzyl)berberine chloride, 13-(4-methoxybenzyl)berberine chloride, 13-(4-trifluoro methoxybenzyl)berberine chloride, 13-(4-methoxycarbonyl benzyl)berberine chloride, 13-(4-t-butylbenzyl)berberine chloride, 13-(4-1-propylbenzyl) berberine chloride, 13-(4-(t-butyldimethylsilyloxy)benzyl) berberine chloride, 13-(4-t-butylbenzyl)palmatine iodide, 13-(4-(t-butyldimethyl silyloxy)benzyl)palmatine chloride and 2,3,9,10-tetra propoxyprotoberberine iodide.

[4] = tested on: knock-out mutant of wis4 (ED1292); test: Growth (cell number) of wis4 knock-out mutant; assay type: cell-based, Schizosaccharomyces pombe; conditions: Table 8, wis4 knock-out
Procedure: as §1, §2

[5] = tested on: KGY246 cells, wild type Saccharomyces pombe; test: Minimum inhibitory concentration (MIC) on Schizosaccharomyces pombe; assay type: cell-based; conditions: YE^AU medium; minimal concentration at which cell number stayed constant; 10% ethanol as solvent
Procedure: Measurement of Minimum Inhibitory Concentration(MIC) of Protoberberine Derivatives on Schizosaccharomyces pombe
KGY246 cells, wild type Saccharomyces pombe, were cultured in rich media YE^AU (yeast extract, peptone, malt extract, dextrose, agar: pH 6.2)containing 0.75 mg/L adenine and uracil to exponential phase. To determine minimum inhibitory concentration of each protoproberberine derivative, cells in exponential phase were transferred to YE^AU medium containing variable concentrations of protoberberine derivatives and cell number was measured every 3 hour. Thereafter, the minimal concentration on which cell number was maintained constantly was determined as minimum inhibitory concentration. The minimum inhibitory concentrations of protoberberine derivatives 13-(4-t-butylbenzyl)berberine chloride, 13-(4-(t-butyldimetylsilyloxy)benzyl)berberine chloride and 2,3,9,10-tetrapropoxyprotoberberine iodide of the present invention were 20 ug/mL, 7 ug/mL and 20 ug/mL respectively. To minimize inhibition by solvent itself, 10% ethanol was used as a solvent of protoberberine derivatives. The processes of cell culture and measurement of cell number described above were repeated using 13-benzylberberine iodide, 13-(4-chlorobenzyl)berberine iodide, 13-(3-bromobenzyl)berberine iodide, 13-(2,3-dichlorobenzyl) berberine chloride, 13-(2-chloro-6-fluorobenzyl)berberine chloride, 13-(4-fluoro-2-trifluoromethylbenzyl)berberine chloride, 13-(2,3,4,5,6-pentafluorobenzyl)berberine chloride, 13-(2,3,5,6-tetrafluoro-4-trifluoromethylbenzyl) berberine chloride, 13-(4-methylbenzyl)berberine chloride, 13-(2,4-dimethylbenzyl)berberine chloride, 13-(4-methyl-3-nitrobenzyl)berberine chloride, 13-(3-trifluoromethyl benzyl)berberine chloride, 13-(4-methoxybenzyl)berberine chloride, 13-(4-trifluoromethoxybenzyl)berberine chloride, 13-(4-methoxycarbonylbenzyl)berberine chloride, 13-(4-i-propylbenzyl)berberine chloride. These compounds also had the minimum concentration of inhibition at the concentration of 18-22 ug/mL.

[6] = tested on: knock-out mutant of wis1 (JM544); test: Growth (cell number) of wis1 knock-out mutant; assay type: cell-based, Schizosaccharomyces pombe; conditions: for inhibition of the activity of Wis1 kinase, concluded from effects on knock-out mutants: conclusion from growth of knock-out mutants; for inhibition of the knock-out mutant of wis1 (in words): table 5
Procedure: To investigate the effect of protoberberine derivatives on the growth of cells, the cells of each strain were cultured in rich medium YE^AU to exponential phase(5×10^7 cells/mL). […]

[7] = tested on: knock-out mutant of spm1 in Mhk1-Spm1 pathway (TZs69); test: Growth (cell number) of spm1 knock-out mutant; assay type: cell-based, Schizosaccharomyces pombe
Procedure: as §1

[8] = Table 6, spc1 knock-out, time 15, miconazole 3 ug/mL
[9] = Table 6, spc1 knock-out, time 18, miconazole 3 ug/mL
[10] = Table 6, spc1 knock-out, time 21, miconazole 3 ug/mL
[11] = Table 6, spc1 knock-out, time 24, miconazole 3 ug/mL
[12] = Table 3, byr2 knock-out, time 12, miconazole 3 ug/mL
[13] = Table 3, byr2 knock-out, time 15, miconazole 3 ug/mL
[14] = Table 3, byr2 knock-out, time 18, miconazole 3 ug/mL
[15] = Table 3, byr2 knock-out, time 21, miconazole 3 ug/mL
[16] = Table 3, byr2 knock-out, time 24, miconazole 3 ug/mL
[17] = Table 5, wis1 knock-out, time 12, miconazole 3 ug/mL
[18] = Table 5, wis1 knock-out, time 15, miconazole 3 ug/mL
[19] = Table 5, wis1 knock-out, time 18, miconazole 3 ug/mL
[20] = Table 5, wis1 knock-out, time 21, miconazole 3 ug/mL
[21] = Table 5, wis1 knock-out, time 24, miconazole 3 ug/mL
[22] = Table 4, spm1 knock-out, time 12, miconazole 3 ug/mL
[23] = Table 4, spm1 knock-out, time 15, miconazole 3 ug/mL
[24] = Table 4, spm1 knock-out, time 18, miconazole 3 ug/mL
[25] = Table 4, spm1 knock-out, time 21, miconazole 3 ug/mL
[26] = Table 4, spm1 knock-out, time 24, miconazole 3 ug/mL

Structure (SMILES)	cell number [1, 8]	cell number [1, 9]	cell number [1, 10]	cell number [1, 11]	inhibition of the knock-out mutant of spc1 (in words) [1]	cell number [2, 12]	cell number [2, 13]	cell number ([3]; time 13)	cell number ([3]; time 16)	cell number ([3]; time 19)	cell number ([3]; time 22)	cell number ([3]; time 25)	cell number ([4]; time 13)	cell number ([4]; time 16)	cell number ([4]; time 19)	cell number ([4]; time 22)	cell number ([4]; time 25)	minimum inhibitory concentration [5] [µg/mL]	inhibition of the activity of Wis1 kinase, concluded from effects on knock-out mutants [6]	inhibition of the knock-out mutant of wis1 (in words) [6]	further results
COc1ccc2c(Cc3ccc(C(C)(C)C)cc3)c3[n+](cc2c1OC)CCc1cc2c(cc1-3)OCO2.[Cl-] [13-(4-t-butylbenzyl)berberine chloride]	299	488	874	1083	partially inhibited	156	150	28	26	17	37	13	24	45	36	23	19	20	inhibit	not inhibited	cell number [2, 14]: 147; cell number [2, 15]: 136; cell number [2, 16]: 128; cell number [6, 17]: 154; cell number [6, 18]: 319; cell number [6, 19]: 538; cell number [6, 20]: 1265; cell number [6, 21]: 1788; cell number [7, 22]: 89; cell number [7, 23]: 113; cell number [7, 24]: 131; cell number [7, 25]: 118; cell number [7, 26]: 125
CCCOc1cc2c(cc1OCCC)-c1cc3ccc(OCCC)c(OCCC)c3c[n+]1CC2.[I-] [2,3,9,10-tetrapropoxyprotoberberine iodide]	382	676	1232	1634	completely inhibited	220	207	102	210	423	750	1575	96	113	265	645	1250	20	inhibit	not inhibited	cell number ([1]; Table 6, spc1 knock-out, time 12, miconazole 3 ug/mL): 201; inhibition of the activity of Spc1 kinase, concluded from effects on knock-out mutants ([1]; conclusion from growth of knock-out mutants): inhibit; cell number [2, 14]: 185; cell number [2, 15]: 167; cell number [2, 16]: 155; cell number [6, 17]: 164; cell number [6, 18]: 325; cell number [6, 19]: 502; cell number [6, 20]: 1041; cell number [6, 21]: 1574; cell number [7, 22]: 117; cell number [7, 23]: 4; cell number [7, 24]: 7; cell number [7, 25]: 165; cell number [7, 26]: 228
COc1ccc2c(Cc3ccc(O[Si](C)(C)C(C)(C)C)cc3)c3[n+](cc2c1OC)CCc1cc2c(cc1-3)OCO2.[Cl-] [13-(4-(t-butyldimethylsilyloxy)benzyl)berberine chloride]	–	–	–	–	not inhibited at all	–	–	31	16	16	26	33	37	52	25	36	23	7	inhibit	not inhibited	cell number ([1]; Table 2, spc1 knock-out, time 14): 57; cell number ([1]; Table 2, spc1 knock-out, time 17): 90; cell number ([1]; Table 2, spc1 knock-out, time 20): 173; cell number ([1]; Table 2, spc1 knock-out, time 23): 210; cell number ([2]; Table 2, byr2 knock-out, time 14): 34; cell number ([2]; Table 2, byr2 knock-out, time 17): 72; cell number ([2]; Table 2, byr2 knock-out, time 20): 156; cell number ([2]; Table 2, byr2 knock-out, time 23): 292; cell number ([6]; Table 2, wis1 knock-out, time 14): 257; cell number ([6]; Table 2, wis1 knock-out, time 17): 665; cell number ([6]; Table 2, wis1 knock-out, time 20): 1355; cell number ([6]; Table 2, wis1 knock-out, time 23): 3100; cell number ([7]; Table 2, Spm1 knock-out, time 14): 55; cell number ([7]; Table 2, Spm1 knock-out, time 17): 94; cell number ([7]; Table 2, Spm1 knock-out, time 20): 266; cell number ([7]; Table 2, Spm1 knock-out, time 23): 450
